For orientation: EC50 means the concentration giving half of the maximal effect.

Numbered stars: 1 amine (or outer) side, 2 acyl side, 3 side chain; on linkers, the order of the positions; unused ones are H or OH. Square brackets hold non-standard residues; d marks the D form. Peptide text beside a SMILES is read from it. X1 = CC(C)(CN([C@@H](CCC(N)=O)C(=O)[*:2])[*:1])NC(=O)[C@@H](N)Cc1c[nH]cn1; Aib = CC(C)(N)C(=O)O

In ChEMBL document CHEMBL5244248, “A novel long-acting oxyntomodulin analogue eliminates diabetes and obesity in mice” (Eur J Med Chem, 2020) one finds EC50 data, which are given here for seven compounds.

For one test, the target named is Glucagon receptor (Mus musculus, UniProt Q61606). Description: Agonist activity at mouse GCGR expressed in CHO cells assessed as increase in cAMP accumulation. Type of test: cell-based. (In general: Cyclic AMP is a second messenger, typically raised through Gs and lowered through Gi signalling.)
Sequence of Glucagon receptor (Q61606 whole entry): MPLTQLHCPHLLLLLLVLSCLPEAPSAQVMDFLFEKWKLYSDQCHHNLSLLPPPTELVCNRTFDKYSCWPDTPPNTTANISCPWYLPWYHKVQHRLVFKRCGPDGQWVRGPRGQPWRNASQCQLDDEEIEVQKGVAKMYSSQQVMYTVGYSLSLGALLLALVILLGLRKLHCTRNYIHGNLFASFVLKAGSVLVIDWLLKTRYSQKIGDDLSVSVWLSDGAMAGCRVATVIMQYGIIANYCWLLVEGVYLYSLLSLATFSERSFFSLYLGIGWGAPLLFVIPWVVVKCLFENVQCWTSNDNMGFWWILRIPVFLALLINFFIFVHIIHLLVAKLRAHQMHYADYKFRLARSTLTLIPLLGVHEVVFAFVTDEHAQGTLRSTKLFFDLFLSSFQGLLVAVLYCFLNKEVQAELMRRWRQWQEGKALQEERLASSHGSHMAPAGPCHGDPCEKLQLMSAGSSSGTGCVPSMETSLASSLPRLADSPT
The target of test [1] is T1, Glucagon-like peptide 1 receptor (Mus musculus, UniProt O35659).
T1 sequence (O35659 whole entry): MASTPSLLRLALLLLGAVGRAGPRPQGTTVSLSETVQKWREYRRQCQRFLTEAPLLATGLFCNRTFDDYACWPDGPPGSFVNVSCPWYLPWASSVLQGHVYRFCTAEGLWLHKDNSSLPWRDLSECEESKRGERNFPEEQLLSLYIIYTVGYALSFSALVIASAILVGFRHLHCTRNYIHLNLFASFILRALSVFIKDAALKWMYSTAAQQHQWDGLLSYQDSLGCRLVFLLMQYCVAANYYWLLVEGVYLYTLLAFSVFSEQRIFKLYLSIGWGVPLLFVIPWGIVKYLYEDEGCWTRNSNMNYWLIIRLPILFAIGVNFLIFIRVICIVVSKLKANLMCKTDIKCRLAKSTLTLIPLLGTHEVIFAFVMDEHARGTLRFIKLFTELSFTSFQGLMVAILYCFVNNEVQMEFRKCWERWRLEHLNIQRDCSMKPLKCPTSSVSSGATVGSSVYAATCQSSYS
Description: Agonist activity at mouse GLP-1R expressed in CHO cells assessed as increase in cAMP accumulation. Type of test: cell-based.

Take `CSCC[C@H](NC(=O)[C@H](CC(C)C)NC(=O)[C@H](Cc1c[nH]c2ccccc12)NC(=O)[C@H](CCC(N)=O)NC(=O)[C@@H](NC(=O)[C@H](Cc1ccccc1)NC(=O)[C@H](CCC(=O)O)NC(=O)[C@H](CCCCN)NC(=O)[C@H](C)NC(=O)[C@H](CCCNC(=N)N)NC(=O)[C@H](CCCCN)NC(=O)[C@H](CCC(=O)O)NC(=O)[C@H](CC(=O)O)NC(=O)[C@H](CC(C)C)NC(=O)[C@H](Cc1ccc(O)cc1)NC(=O)[C@H](CCCCN)NC(=O)[C@H](CO)NC(=O)[C@H](Cc1ccc(O)cc1)NC(=O)[C@H](CC(=O)O)NC(=O)[C@H](CO)NC(=O)[C@@H](NC(=O)[C@H](Cc1ccccc1)NC(=O)[C@@H](NC(=O)CNC(=O)[C@H](CCC(N)=O)NC(=O)C(C)(C)NC(=O)[C@@H](N)Cc1c[nH]cn1)[C@@H](C)O)[C@@H](C)O)C(C)C)C(=O)N[C@@H](CC(N)=O)C(=O)N[C@H](C(=O)NCC(=O)N1CCC[C@H]1C(=O)N[C@@H](CO)C(=O)N[C@@H](CO)C(=O)NCC(=O)N[C@@H](C)C(=O)N1CCC[C@H]1C(=O)N[C@@H](CO)C(N)=O)[C@@H](C)O`: the figures for the concentration for a half-maximal effect (EC50) (on Glucagon receptor; in test [1]) were 0.53 nM and 0.36 nM, respectively.
For the compound `CSCC[C@H](NC(=O)[C@H](CC(C)C)NC(=O)[C@H](Cc1c[nH]c2ccccc12)NC(=O)[C@H](CS)NC(=O)[C@@H](NC(=O)[C@H](Cc1ccccc1)NC(=O)[C@H](CCC(=O)O)NC(=O)[C@H](CCCCN)NC(=O)[C@H](C)NC(=O)[C@H](CCCNC(=N)N)NC(=O)[C@H](CCCCN)NC(=O)[C@H](CCC(=O)O)NC(=O)[C@H](CC(=O)O)NC(=O)[C@H](CC(C)C)NC(=O)[C@H](Cc1ccc(O)cc1)NC(=O)[C@H](CCCCN)NC(=O)[C@H](CO)NC(=O)[C@H](Cc1ccc(O)cc1)NC(=O)[C@H](CC(=O)O)NC(=O)[C@H](CO)NC(=O)[C@@H](NC(=O)[C@H](Cc1ccccc1)NC(=O)[C@@H](NC(=O)CNC(=O)[C@H](CCC(N)=O)NCC(C)(C)NC(=O)[C@@H](N)Cc1c[nH]cn1)[C@@H](C)O)[C@@H](C)O)C(C)C)C(=O)N[C@@H](CC(N)=O)C(=O)N[C@H](C(=O)NCC(=O)N1CCC[C@H]1C(=O)N[C@@H](CO)C(=O)N[C@@H](CO)C(=O)NCC(=O)N[C@@H](C)C(=O)N1CCC[C@H]1C(=O)N[C@@H](CO)C(N)=O)[C@@H](C)O` (H-[X1]GTFTSDYSKYLDEKRAKEFVCWLMNTGPSSGAPS-NH2), the concentration for a half-maximal effect (EC50) was 0.68 nM on Glucagon receptor and 0.45 nM in test [1].
Turning to `CC[C@H](C)[C@H](NC(=O)[C@H](CC(N)=O)NC(=O)[C@H](CC(N)=O)NC(=O)[C@H](CCCNC(=N)N)NC(=O)[C@H](CC(N)=O)NC(=O)[C@H](CCCNC(=N)N)NC(=O)[C@H](CCCCN)NC(=O)[C@@H](NC(=O)[C@H](CC(N)=O)NC(=O)[C@H](CCSC)NC(=O)[C@H](CC(C)C)NC(=O)[C@H](Cc1c[nH]c2ccccc12)NC(=O)[C@H](CCC(N)=O)NC(=O)[C@@H](NC(=O)[C@H](Cc1ccccc1)NC(=O)[C@H](CCC(=O)O)NC(=O)[C@H](CCCCN)NC(=O)[C@H](C)NC(=O)[C@H](CCCNC(=N)N)NC(=O)[C@H](CCCCN)NC(=O)[C@H](CCC(=O)O)NC(=O)[C@H](CC(=O)O)NC(=O)[C@H](CC(C)C)NC(=O)[C@H](Cc1ccc(O)cc1)NC(=O)[C@H](CCCCN)NC(=O)[C@H](CO)NC(=O)[C@H](Cc1ccc(O)cc1)NC(=O)[C@H](CC(=O)O)NC(=O)[C@H](CCC(=O)O)NC(=O)[C@@H](NC(=O)[C@H](Cc1ccccc1)NC(=O)[C@@H](NC(=O)CNC(=O)[C@H](CCC(N)=O)NC(=O)C(C)(C)NC(=O)[C@@H](N)Cc1c[nH]cn1)[C@@H](C)O)[C@@H](C)O)C(C)C)[C@@H](C)O)C(=O)N[C@@H](C)C(N)=O` (H-H[Aib]QGTFTEDYSKYLDEKRAKEFVQWLMNTKRNRNNIA-NH2), the 50% effective concentration (EC50) at Glucagon receptor came to 9.03 nM; in test [1] it was 17.6 nM.
Take `CC[C@H](C)[C@H](NC(=O)[C@H](CC(N)=O)NC(=O)[C@H](CC(N)=O)NC(=O)[C@H](CCCNC(=N)N)NC(=O)[C@H](CC(N)=O)NC(=O)[C@H](CCCNC(=N)N)NC(=O)[C@H](CCCCN)NC(=O)[C@@H](NC(=O)[C@H](CC(N)=O)NC(=O)[C@H](CCSC)NC(=O)[C@H](CC(C)C)NC(=O)[C@H](Cc1c[nH]c2ccccc12)NC(=O)[C@H](CCC(N)=O)NC(=O)[C@@H](NC(=O)[C@H](Cc1ccccc1)NC(=O)[C@H](CC(=O)O)NC(=O)[C@H](CCCCN)NC(=O)[C@H](C)NC(=O)[C@H](CCCNC(=N)N)NC(=O)[C@H](CCCNC(=N)N)NC(=O)[C@H](CCC(=O)O)NC(=O)[C@H](CC(=O)O)NC(=O)[C@H](CC(C)C)NC(=O)[C@H](Cc1ccc(O)cc1)NC(=O)[C@H](CCCCN)NC(=O)[C@H](CO)NC(=O)[C@H](Cc1ccc(O)cc1)NC(=O)[C@H](CC(=O)O)NC(=O)[C@H](CO)NC(=O)[C@@H](NC(=O)[C@H](Cc1ccccc1)NC(=O)[C@@H](NC(=O)CNC(=O)[C@H](CCC(N)=O)NC(=O)C(C)(C)NC(=O)[C@@H](N)Cc1c[nH]cn1)[C@@H](C)O)[C@@H](C)O)C(C)C)[C@@H](C)O)C(=O)N[C@@H](C)C(N)=O` (H-H[Aib]QGTFTSDYSKYLDERRAKDFVQWLMNTKRNRNNIA-NH2): the figures for the EC50 (at Glucagon receptor; in test [1]) were 3.41 nM and 1.59 nM, respectively.
Regarding `CC[C@H](C)[C@H](NC(=O)[C@H](CC(N)=O)NC(=O)[C@H](CC(N)=O)NC(=O)[C@H](CCCNC(=N)N)NC(=O)[C@H](CC(N)=O)NC(=O)[C@H](CCCNC(=N)N)NC(=O)[C@H](CCCCN)NC(=O)[C@@H](NC(=O)[C@H](CC(N)=O)NC(=O)[C@H](CCSC)NC(=O)[C@H](CC(C)C)NC(=O)[C@H](Cc1c[nH]c2ccccc12)NC(=O)[C@H](CCC(N)=O)NC(=O)[C@@H](NC(=O)[C@H](Cc1ccccc1)NC(=O)[C@H](CC(=O)O)NC(=O)[C@H](CCC(N)=O)NC(=O)[C@H](C)NC(=O)[C@H](CCCNC(=N)N)NC(=O)[C@H](CCCNC(=N)N)NC(=O)[C@H](CCC(=O)O)NC(=O)[C@H](CC(=O)O)NC(=O)[C@H](CC(C)C)NC(=O)[C@H](Cc1ccc(O)cc1)NC(=O)[C@H](CCCCN)NC(=O)[C@H](CO)NC(=O)[C@H](Cc1ccc(O)cc1)NC(=O)[C@H](CC(=O)O)NC(=O)[C@H](CO)NC(=O)[C@@H](NC(=O)[C@H](Cc1ccccc1)NC(=O)[C@@H](NC(=O)CNC(=O)[C@H](CCC(N)=O)NC(=O)C(C)(C)NC(=O)[C@@H](N)Cc1c[nH]cn1)[C@@H](C)O)[C@@H](C)O)C(C)C)[C@@H](C)O)C(=O)N[C@@H](C)C(N)=O` (H-H[Aib]QGTFTSDYSKYLDERRAQDFVQWLMNTKRNRNNIA-NH2), the concentration for a half-maximal effect (EC50) was determined as 6.14 nM at Glucagon receptor and 3.47 nM in test [1].
The corresponding values for `CSCC[C@H](NC(=O)[C@H](CC(C)C)NC(=O)[C@H](Cc1c[nH]c2ccccc12)NC(=O)[C@H](CCC(N)=O)NC(=O)[C@@H](NC(=O)[C@H](Cc1ccccc1)NC(=O)[C@H](CCC(=O)O)NC(=O)[C@H](CCCCN)NC(=O)[C@H](C)NC(=O)[C@H](CCCNC(=N)N)NC(=O)[C@H](CCCCN)NC(=O)[C@H](CCC(=O)O)NC(=O)[C@H](CC(=O)O)NC(=O)[C@H](CC(C)C)NC(=O)[C@H](Cc1ccc(O)cc1)NC(=O)[C@H](CCCCN)NC(=O)[C@H](CO)NC(=O)[C@H](Cc1ccc(O)cc1)NC(=O)[C@H](CC(=O)O)NC(=O)[C@H](CO)NC(=O)[C@@H](NC(=O)[C@H](Cc1ccccc1)NC(=O)[C@@H](NC(=O)CNC(=O)[C@H](CCC(N)=O)NC(=O)C(C)(C)NC(=O)[C@@H](N)Cc1c[nH]cn1)[C@@H](C)O)[C@@H](C)O)C(C)C)C(=O)N[C@@H](CC(N)=O)C(=O)N[C@H](C(=O)NCC(=O)N1CCC[C@H]1C(=O)N[C@@H](CO)C(=O)N[C@@H](CO)C(=O)NCC(=O)N[C@@H](C)C(=O)N1CCC[C@H]1C(=O)N[C@@H](CO)C(=O)N[C@@H](CS)C(N)=O)[C@@H](C)O` are 0.59 nM and 0.4 nM.
For the compound `CC[C@H](C)[C@H](NC(=O)[C@H](CC(N)=O)NC(=O)[C@H](CC(N)=O)NC(=O)[C@H](CCCNC(=N)N)NC(=O)[C@H](CC(N)=O)NC(=O)[C@H](CCCNC(=N)N)NC(=O)[C@H](CCCCN)NC(=O)[C@@H](NC(=O)[C@H](CC(N)=O)NC(=O)[C@H](CCSC)NC(=O)[C@H](CC(C)C)NC(=O)[C@H](Cc1c[nH]c2ccccc12)NC(=O)[C@H](CCC(=O)O)NC(=O)[C@@H](NC(=O)[C@H](Cc1ccccc1)NC(=O)[C@H](CCC(=O)O)NC(=O)[C@H](CCCCN)NC(=O)[C@H](C)NC(=O)[C@H](CCCNC(=N)N)NC(=O)[C@H](CCCCN)NC(=O)[C@H](CCC(=O)O)NC(=O)[C@H](CC(=O)O)NC(=O)[C@H](CC(C)C)NC(=O)[C@H](Cc1ccc(O)cc1)NC(=O)[C@H](CCCCN)NC(=O)[C@H](CO)NC(=O)[C@H](Cc1ccc(O)cc1)NC(=O)[C@H](CC(=O)O)NC(=O)[C@H](CO)NC(=O)[C@@H](NC(=O)[C@H](Cc1ccccc1)NC(=O)[C@@H](NC(=O)CNC(=O)[C@H](CCC(N)=O)NC(=O)C(C)(C)NC(=O)[C@@H](N)Cc1c[nH]cn1)[C@@H](C)O)[C@@H](C)O)C(C)C)[C@@H](C)O)C(=O)N[C@@H](C)C(N)=O` (H-H[Aib]QGTFTSDYSKYLDEKRAKEFVEWLMNTKRNRNNIA-NH2), the concentration giving a half-maximal response (EC50) on Glucagon receptor came to 1.44 nM; in test [1], 1.36 nM.
